# Entries after “also recorded” stand apart in the source; their conditions may differ.
# Columns and labels:
# [1] = system: mixed-lineage kinases (MLKs); settings: reported; cited from earlier work
# Pak = settings: reported; cited from earlier work
# N-WASP = settings: cited from earlier work
# WASP = molecular target: T1, WASP (Homo sapiens, UniProt P42768); settings: cited from earlier work
# T1 sequence (P42768 with tags, fused parts or gaps limits assumed): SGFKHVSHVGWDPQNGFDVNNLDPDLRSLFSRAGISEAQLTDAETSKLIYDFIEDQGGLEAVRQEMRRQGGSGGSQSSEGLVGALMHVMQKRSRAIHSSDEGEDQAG
# full-length Pak1 = molecular target: T2, full-length Pak1 (Homo sapiens, UniProt Q13153); test: luminescence-based (Kinase Glo) kinase assay, Cdc42-activated full-length Pak1; assay type: biochemical; settings: 384-well plates, ATP-dependent luminescence, FIG. 9C
# T2 construct: made in house; host or cells: Sf9 cells
# T2 sequence (Q13153 whole entry): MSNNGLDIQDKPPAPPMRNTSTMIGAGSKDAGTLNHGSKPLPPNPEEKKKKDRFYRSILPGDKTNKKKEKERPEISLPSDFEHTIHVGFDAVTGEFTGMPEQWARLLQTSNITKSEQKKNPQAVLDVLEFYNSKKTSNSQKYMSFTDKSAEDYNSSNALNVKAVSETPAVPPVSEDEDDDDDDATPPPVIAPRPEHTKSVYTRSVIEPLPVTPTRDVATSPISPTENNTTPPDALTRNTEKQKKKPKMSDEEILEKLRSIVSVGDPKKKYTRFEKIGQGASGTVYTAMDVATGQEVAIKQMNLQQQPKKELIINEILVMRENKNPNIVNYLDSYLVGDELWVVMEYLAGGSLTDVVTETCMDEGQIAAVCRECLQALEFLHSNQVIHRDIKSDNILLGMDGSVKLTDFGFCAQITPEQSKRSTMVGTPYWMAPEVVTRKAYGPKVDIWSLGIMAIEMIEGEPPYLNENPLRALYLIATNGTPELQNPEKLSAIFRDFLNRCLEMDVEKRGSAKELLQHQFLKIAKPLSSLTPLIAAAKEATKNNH
# Procedure: In some embodiments, the kinase activity of these two proteins (wild-type full length kinase, and isolated kinase domain) is measured in parallel using a validated luminescence-based assay. In this assay, kinase activity is based on a measurement of the residual ATP in the reaction following kinase-mediated ATP hydrolysis (Kinase Glo®; Promega®). This is an endpoint assay in which kinase reactions are allowed to proceed until a predetermined timepoint at which point the addition of the Kinase Glo® detection mix containing luciferase and luciferin stops the kinase reaction and utilizes the residual ATP to convert luciferin to oxyluciferin with the accompanying emission of a photon of light. Intensity of the emitted light is linearly correlated with ATP concentration. […]
# The isolated kinase domain or full-length Pak1 in assay buffer is aliquotted into individual wells of a 384-well plate using a Bio-Tek MicroFill®. […] The reaction is stopped by the addition of Kinase Glo® reagent (15 μl/well), and is incubated at room temperature for 10-30 minutes to allow development of luminescence. Luminescence is read in a Cary Eclipse (Varian®) fluorometer/luminometer outfitted for reading 384-well plates.
# A luminescence-based assay for kinase activity is used based on measurement of residual ATP in the reaction following kinase-mediated ATP hydrolysis. […]
smiles,measurement,setting,value
CCSCc1ccc2c(c1)c1c3c(c4c5cc(CSCC)ccc5n5c4c1n2[C@H]1C[C@](O)(C(=O)OC)[C@]5(C)O1)CNC3=O [CEP-1347],potency against MLKs relative to Pak,[1],at least an order of magnitude more potent
same,concentration at which Pak is inhibited,Pak,low micromolar
CN(C)C[C@H](O)Cn1c2ccc(Br)cc2c2cc(Br)ccc21 (racemic) [wiskostatin],inhibition of N-WASP,N-WASP,chemical inhibitors of N-WASP
same,binding site on WASP,WASP; NMR structure,bound exclusively to the PBD in its autoinhibited conformation
same,effect on autoinhibited fold of the PBD,WASP; biophysical experiments,stabilizes the autoinhibited fold of the PBD
CN[C@@H]1C[C@H]2O[C@@](C)([C@@H]1OC)n1c3ccccc3c3c4c(c5c6ccccc6n2c5c31)C(=O)NC4 [staurosporine],inhibition of Pak1 kinase activity,full-length Pak1,successfully detects inhibition of Pak; also recorded: readily detected

# Reference: patent US20080032897A1, “Methods of screening for inhibitors of autoinhibited proteins” (priority 2004, published 2008)
